Laboratory results taken from patent US20080113938A1, “ACCELERATOR FOR MINERAL ABSORPTION AND USE THEREOF” (KABUSHIKI KAISHA HAYASHIBARA SEIBUTSU KAGAKU KENKYUJO, priority 2003, published 2008).
Marks after values point to notes of the source that are not given here.

Assays:
Format in all cases: cell-based, Wister rats
[1] = system: reversed canal sac of intestinum ileum; test: Calcium absorption in reversed canal sac, intestinum ileum
Description: (§1) Experiment 1 confirmed that cyclic tetrasaccharide promotes mineral absorption in alimentary canal of rat concretely in intestinum ileum or its upper alimentary canal. The following experiment was carried out in order to determine a part of alimentary canal, cyclic tetrasaccharide acts on to promote mineral absorption. Twenty heads of Wister rats (nine week aged male, commercialized by Charlesriver Corporation, Kanagawa, Japan) were bred for three days with a usual solid feed for rats. Under the anesthetization with ether, alimentary canal was taken out from each rat which had been bled from a jugular vein and treated by abdominal operation. Each alimentary canal was divided into jejunum, intestinum ileum and colon/rectum and washed with physiological saline to remove the content. The resulting jejunum specimen, intestinum ileum specimen or colon/rectum specimen was cut off to prepare each midsection sized with about 10 cm in length. The resulting midsection of each specimen was reversed using a glass rod and immersed in a physiological saline babbled with gas consisting of 95% oxygen and 5% carbon dioxide. The resultant was cut into pieces sized with 5 cm in length and each piece was tied with a suture thread at both ends to prepare a reversed canal sac, and injected with about 0.5 ml of an internal sac solution containing 30 mM Tris-HCl buffer (pH7.4), 125 mM sodium chloride, 4 mM potassium chloride, 10 mM glucose and 1.25 mM calcium chloride (dihydrate) with a syringe and weighed. The resulting sac was immersed in an external sac solution (being bubbled with the gas consisting of 95% oxygen and 5% carbon dioxide) containing 50 mM, 100 mM or 200 mM of the same cyclic tetrasaccharide to Experiment 1 in the above solution containing 30 mM Tris-HCl buffer (pH7.4), 125 mM sodium chloride, 4 mM potassium chloride, 10 mM glucose and 1.25 mM calcium chloride (dihydrate). At 15 or 30 minutes after the immersion, the reversed canal sac was taken out from the solution and washed with distilled water. The internal sac solution was collected from the resulting sac and admixed with distilled water to give a final volume of 25 ml. The resulting solution was subjected to a calorimetric measurement of calcium content using “CALCIUM TEST C WAKO™” (commercialized by Wako Pure Chemicals Corporation, Osaka, Japan). As a negative control, an external sac solution without saccharides. As a positive control, an external sac solution containing 200 mM maltitol, reported to have the effect on promoting mineral absorption though intestinal canal, instead of cyclic tetrasaccharide were prepared and carried out in the same manner. Speed of calcium absorption (nmol/min·cm^2) and its relative values defining the value of negative control as 100 were calculated.

[2] = system: reversed canal sac of jejunum; test: Calcium absorption in reversed canal sac, jejunum
Description: as §1

[3] = system: reversed canal sac of colon/rectum; test: Calcium absorption in reversed canal sac, colon/rectum
Description: as §1

[4] = 200 mM saccharide in external sac solution

OC[C@@H](O)[C@@H](O[C@H]1O[C@H](CO)[C@@H](O)[C@H](O)[C@H]1O)[C@H](O)[C@@H](O)CO [Maltitol, maltitol, reference compound]
Absorption speed of calcium in alimentary canal sac, Intestinum ileum [1, 4]: 40.5 * nmol/min · cm^2 | Relative value of calcium absorption speed (control = 100), Intestinum ileum [1, 4]: (150) | promotion of calcium absorption in intestinum ileum ([1]; reversed sac): strongly promoted | Absorption speed of calcium in alimentary canal sac, Jejunum [2, 4]: 27.9 * nmol/min · cm^2 | Relative value of calcium absorption speed (control = 100), Jejunum [2, 4]: (131) | promotion of calcium absorption in jejunum ([2]; reversed sac): strongly promoted | Absorption speed of calcium in alimentary canal sac, Colon/Rectum [3, 4]: 22.3 * nmol/min · cm^2 | Relative value of calcium absorption speed (control = 100), Colon/Rectum [3, 4]: (168) | promotion of calcium absorption in colon/rectum ([3]; reversed sac): strongly promoted
